Patent US20240398824A1, “Inhibition Of Rip Kinases For Treating Neurodegenerative Disorders” (The Johns Hopkins University, priority 2018, published 2024)

What was measured:
[1] = system: primary microglia activated with α-synuclein PFFs; assay: qPCR of A1 astrocyte inducers (TNFα, IL-1α, C1q) in primary microglia activated with α-synuclein PFFs; assay type: cell-based, mouse; conditions: inhibitor 10 μM 30 min, then α-synuclein PFFs 1 μg/mL 4 h; in words
Protocol: α-synuclein purification and α-synuclein PFFs preparation: Recombinant mouse α-synuclein proteins were purified as previously described with an IPTG-independent inducible pRK172 vector system (Nat Protoc. 9(9): 2135-46 (2014)). Endotoxin was depleted by ToxinEraser endotoxin removal kit (Genscript, NJ, USA). α-synuclein PFFs (5 mg ml^−1) was prepared in PBS while stirring with a magnetic stirrer (1,000 rpm at 37° C.). After a week of incubation of the α-synuclein protein, aggregates were diluted to 0.1 mg ml^−1 with PBS and sonicated for 30 s (0.5 s pulse on/off) at 10% amplitude (Branson Digital sonifier, Danbury, CT, USA). α-synuclein PFFs was validated using atomic force microscopy and transmission electron microscopy, and the ability to induce phospho-serine 129 α-synuclein (p-α-synSer129) was confirmed using immunostaining. α-synuclein PFFs was stored at −80° C. until use. […]
Comparative qPCR: The total RNA from cultured cells was extracted with RNA isolation kit (Qiagen, CA) following the instruction provided by the company. RNA concentration was measured spectrophotometrically using NanoDrop 2000 ([…]). […] The expression levels of targeted genes were normalized to the expression of β-actin and calculated based on the comparative cycle threshold Ct method (2-ΔΔCt).

[2] = system: α-synuclein PFFs-induced PD mice; assay: α-synuclein PFFs-induced PD mouse model, IHC of ventral midbrain / SN; assay type: in vivo
Protocol: Study rationale and objectives: The purpose of this study was to investigate the anti-PD efficacy of Gefitinib, RIPK2 inhibitor, in the α-synuclein PFF model PD. To this end, α-synuclein PFF were injected into the striatum of NOD2 KO or RIPK2 KO. α-synuclein PFFs-induced PD mice were orally treated with Gefitinib (Gef) (30 mg/kg, once daily) after 1 month striatal α-synuclein PFF injection for 5 months and tissues were analyzed.
Mouse strain for stereotaxic α-synuclein PFFs injection: NOD2 or RIPK2 KO mice was obtained from the Jackson Laboratories (Bar Harbor, ME). All housing, breeding, and procedures were performed according to the NIH Guide for the Care and Use of Experimental Animals and approved by the Johns Hopkins University Animal Care and Use Committee.
α-synuclein protein purification and PFF preparation: Recombinant mouse α-synuclein proteins were purified as previously described with an IPTG-independent inducible pRK172 vector system. Endotoxin was depleted by ToxinEraser endotoxin removal kit (Genscript, NJ, USA). α-synuclein PFFs (5 mg ml^−1) was prepared in PBS while stirring with a magnetic stirrer (1,000 rpm at 37° C.). After a week of incubation of the α-synuclein protein, aggregates were diluted to 0.1 mg ml^−1 with PBS and sonicated for 30 s (0.5 s pulse on/off) at 10% amplitude (Branson Digital sonifier, Danbury, CT, USA). α-synuclein PFFs was validated using atomic force microscopy and transmission electron microscopy, and the ability to induce phospho-serine 129 α-synuclein (p-α-synSer129) was confirmed using immunostaining. α-synuclein PFFs was stored at −80° C. until use.
Stereotaxic α-synuclein PFFs injection and Immunohistochemistry (IHC): For stereotaxic injection of α-synuclein PFFs, 3 months old NOD2 KO or RIPK2 KO male and female mice were anesthetized with xylazene and ketamine. An injection cannula (26.5 gauge) was applied stereotaxically into the striatum (STR) (mediolateral, 2.0 mm from bregma; anteroposterior, 0.2 mm; dorsoventral, 2.6 mm) unilaterally into the right hemisphere. The infusion of 2 μL α-synuclein PFFs ([…] in PBS) or the same volume of PBS was performed at a rate of 0.2 μL per min. After the final dose, the injection cannula was maintained in the STR for additional 5 min for a complete absorption of the α-synuclein PFFs or PBS then slowly removed from the mouse brain. The head skin was closed by suturing and wound healing and recovery were monitored following surgery. For IHC analysis, animals were perfused and fixed intracardially with ice-cold PBS followed by 4% paraformaldehyde at 3 months after striatal α-synuclein PFFs injections. The brain was removed and processed for immunohistochemistry. IHC for pS129-α-synuclein immunoreactivity was performed at 3 months after the unilateral striatal α-synuclein PFFs injections. Treatment of Gefitinib was accomplished after one month of unilateral striatal α-synuclein PFFs injection, once daily.

Structure (SMILES) | release of A1 astrocyte inducer (TNFα, IL-1α, C1q) from microglia [1] | # of p-αSyn positive signal in the SN ([2]; Gefitinib 30 mg/kg oral once daily, PFF-injected mice, Veh + PFFs 32.14 ± 1.93, mean ± SEM, n = 5) | # of microglia in the SN ([2]; Gefitinib 30 mg/kg oral once daily, PFF-injected mice, Veh + PFFs 1138.72 ± 91.48, mean ± SEM, n = 5) | microglia activation in the ventral midbrain ([2]; IHC, vs non-treated PD mice, in words) | α-synuclein PFFs induced pathologies in mice ([2]; oral administration, in words) | LB pathology (pS129-α-synuclein immunoreactivity) ([2]; ventral midbrain, IHC, vs non-treated PD mice, in words)
COc1cc2ncnc(Nc3ccc(F)c(Cl)c3)c2cc1OCCCN1CCOCC1 [Gefitinib] | significantly suppress | 16.49 ± 2.01 | 409.15 ± 94.27 | suppresses microglia activation | significantly rescues α-synuclein PFFs induced pathologies | significantly ameliorates LB pathology
CC(C)(C)S(=O)(=O)c1ccc2nccc(Nc3n[nH]c4ccc(F)cc34)c2c1 [GSK583, 6-(tert-butylsulfonyl)-N-(5-fluoro-1H-indazol-3-yl) quinolin-4-amine] | significantly suppress |  |  |  |  | 
